Values of other authors in patent US5690961A, “Acidic polysaccharides crosslinked with polycarboxylic acids and their uses” (Hercules Incorporated, priority 1994, dated 1997).

Details: in vivo

half-life of hyaluronic acid injected in a joint: about 13 hours
Substance: hyaluronic acid
